Here are results for seven molecules from ChEMBL document CHEMBL2346526, “Synthesis and antiproliferative activity of C-homo-lactam derivatives of 7-deoxycholic acid” (Bioorg Med Chem Lett, 2013).

Assay type in all cases: functional, cell-based
Experiment [1] is described as follows: Cytotoxicity against GNE 2 cells (unknown origin) after 72 hrs by MTT assay. For orientation: Tetrazolium assays rely on reduction of a dye to a coloured formazan, in cell work by metabolically active cells.
The nature of experiment [2]: Cytotoxicity against human Tu 686 cells after 72 hrs by MTT assay.
Another experiment has as its system HeLa. Kind of experiment: Cytotoxicity against human HeLa cells after 72 hrs by MTT assay.
The nature of experiment [3]: Cytotoxicity against human SMMC-7404 cells after 72 hrs by MTT assay.
Experiment [4] can be described thus: Cytotoxicity against human SPC-A cells after 72 hrs by MTT assay.
Experiment [5] can be described thus: Cytotoxicity against human MGC7901 cells after 72 hrs by MTT assay.
Setting [6] is: Homo sapiens, HeLa, 72 h, read-out: IC50.

Where only a bound is given, the exact number is not on record here.

The term IC50 denotes the concentration needed to halve the response being measured.

Turning to `COC(=O)CC[C@@H](C)[C@H]1CC[C@H]2[C@@H]3CC[C@@H]4C[C@@H](OC(C)=O)CC[C@]4(C)[C@H]3C/C(=N\O)[C@]12C`, the IC50 in experiment [1] stood at 17.3 µM; in experiment [2], 74.3 µM; with HeLa (setting [6]), 14.7 µM; in experiment [3] it was 15.6 µM; in experiment [4], 13.5 µM; in experiment [5], 19.8 µM.

Turning to `CC(=O)O[C@H]1CC[C@@]2(C)[C@H](CC[C@@H]3[C@@H]2CC(=O)N[C@]2(C)[C@@H]([C@H](C)CCC(=O)O)CC[C@@H]32)C1`, the IC50 in experiment [1] is 134 µM; in experiment [2], 19.8 µM; in the experiment on HeLa (hela), above 200 µM; in experiment [3], 99.3 µM; in experiment [4] it was 185 µM; in experiment [5], 185 µM.

With `COC(=O)CC[C@@H](C)[C@H]1CC[C@H]2[C@@H]3CC[C@@H]4C[C@@H](O)CC[C@]4(C)[C@H]3CC(=O)N[C@]12C`, the IC50 in experiment [1] was 168 µM; in experiment [2], above 200 µM; in the experiment on HeLa (setting [6]), 19 µM; in experiment [3] it was above 200 µM; in experiment [4] it was above 200 µM; in experiment [5], above 200 µM.

For the molecule `COC(=O)CC[C@@H](C)[C@H]1CC[C@H]2[C@@H]3CC[C@@H]4C[C@@H](OC(C)=O)CC[C@]4(C)[C@H]3CC(=O)N[C@]12C`, the concentration for half-maximal inhibition (IC50) is above 200 µM in experiment [1]; 65.9 µM in experiment [2]; 15.9 µM with HeLa (setting [6]); 62.3 µM in experiment [3]; above 200 µM in experiment [4]; 80.7 µM in experiment [5].

For `CC(=O)O[C@H]1CC[C@@]2(C)[C@H](CC[C@@H]3[C@@H]2CC(=O)N[C@]2(C)[C@@H]([C@H](C)CCC(=O)N(C)C)CC[C@@H]32)C1`, the IC50 in experiment [1] is 151 µM; in experiment [2], 74.5 µM; in the experiment with HeLa (hela), above 200 µM; in experiment [3] it was 168 µM; in experiment [4] it was 130 µM; in experiment [5], 88.5 µM.

As for `C[C@H](CCC(=O)O)[C@H]1CC[C@H]2[C@@H]3CC[C@@H]4CC(=O)CC[C@]4(C)[C@H]3CC(=O)N[C@]12C`, the IC50 was above 200 µM in experiment [1]; 16.7 µM in experiment [2]; above 200 µM with HeLa (hela); above 200 µM in experiment [3]; above 200 µM in experiment [4]; above 200 µM in experiment [5].

Regarding `C[C@H](CCC(=O)O)[C@H]1CC[C@H]2[C@@H]3CC[C@@H]4C[C@@H](O)CC[C@]4(C)[C@H]3CC(=O)N[C@]12C`, the IC50 was 168 µM in experiment [1]; 44.3 µM in experiment [2]; 19.2 µM with HeLa (setting [6]); above 200 µM in experiment [3]; above 200 µM in experiment [4]; above 200 µM in experiment [5].
